The values that follow come from paper PMC8437966, “Structure and function relationship of OqxB efflux pump from Klebsiella pneumoniae” (Nature Communications, 2021).

Each structure is given as a SMILES string. Values after ≈ are worked out from the molar mass of the structure shown.

The subject of assay [1] is Escherichia coli SEC086. How it is done: (§1) MIC (Minimum Inhibitory Concentration) was determined according to CLSI guidelines, as discussed elsewhere. Briefly, the strains were streaked on LB-Agar plates with Ampicillin (100 µg/mL) from glycerol stocks maintained at −80 °C and allowed to grow overnight at 37 °C. A single colony of each strain was picked from the fresh plates and grown in MHB No.2 Control Cations Hi-Media (MHB) with Ampicillin (100 µg/mL). Phe-Arg β-Naphthylamide (PAβN; Sigma-Aldrich, Catalog no.# P4157) was used at a final concentration of 20 µg/mL, wherever mentioned. The AcrAB and OqxAB expression are under a […] promoter, and AcrB and OqxB were induced with 100 μM of IPTG (Amresco, Catalog no.# 0487-10 G). Antibiotics and their two-fold dilution series were prepared in DMSO. Three microliters compound from each of the dilutions and 150 μL (3–7 × 10^5 CFU/mL) of bacterial culture were added to a flat bottom 96 well microtiter plates to obtain final antibiotic concentrations ranging from 0.03 µg/mL to 160 µg/mL. The plates were packed in gas permeable polythene bags and incubated at 37 °C for 16–18 h. MIC was determined as the concentration at which no bacterial growth was observed as ascertained by absorbance (A600nm) with a spectrophotometer. In the case of the wild-type strain and clinical isolates, 90% growth inhibition was used for MIC determination. […] All experiments were performed in triplicates and the data reported in this work is representative of the same. OqxB, the RND efflux pump component, is associated with increased resistance in clinical isolates of E. coli and K. pneumoniae. To understand the efflux liability for fluoroquinolones in E. coli in the clinic, 84 recent clinical isolates were evaluated by MIC experiments (at St. John’s Medical Hospital, Bengaluru, India). […] To delineate the cause of the resistance, the Quinolone-resistance determining regions (QRDR) of gyrA and parC were sequenced. […] Therefore, complementation experiments in “sensitive strains” were undertaken to further probe the role of OqxB in efflux towards fluoroquinolone resistance.

Assay [2] relates to Escherichia coli SEC037. The method, then:
as §1

For the next assay, the system named is Escherichia coli BW25113. How it is done:
as §1

Assay [3] has as its system Escherichia coli SEC030. How it is done: as §1
For assay [4], the system named is T1, Escherichia coli SEC045.
T1 construct: SEC045
Details: CLSI broth microdilution MIC, 96-well, absorbance at 600 nm. How it is done: as §1

The subject of another assay is T2, Escherichia coli SEC056.
T2 construct: SEC056
Further details: CLSI broth microdilution MIC, 96-well, absorbance at 600 nm. How it is done:
as §1

The test system of assay [5] is T3, Escherichia coli SEC032.
T3 construct: SEC032
Further details: CLSI broth microdilution MIC, 96-well, absorbance at 600 nm. The method, then:
as §1

A further assay has as its system T4, Escherichia coli SEC052.
T4 construct: SEC052
Further details: CLSI broth microdilution MIC, 96-well, absorbance at 600 nm. How it is done: as §1

The test system of the next assay is T5, Escherichia coli SEC010.
T5 construct: SEC010
Further details: CLSI broth microdilution MIC, 96-well, absorbance at 600 nm. The method, then: as §1

For a further assay, the system named is T6, Escherichia coli SEC063.
T6 construct: SEC063
Further details: CLSI broth microdilution MIC, 96-well, absorbance at 600 nm. How it is done:
as §1

Assay [6] has as its system T1, Escherichia coli SEC045. Description: microbe, parasite or virus in culture. Further details: species or system Escherichia coli clinical isolates; CLSI broth microdilution MIC on E. coli clinical isolates, A600 read-out, 90% growth inhibition. As to conditions: SEC045, read-out: MIC VALUES / Ampicillin. The method, then: as §1
Assay [7] deals with T3, Escherichia coli SEC032. Briefly: microbe, parasite or virus in culture. Further details: species or system Escherichia coli clinical isolates; CLSI broth microdilution MIC on E. coli clinical isolates, A600 read-out, 90% growth inhibition. The following applies: SEC032, read-out: MIC VALUES / Ampicillin. How it is done: as §1
In assay [8] the test system is T7, Escherichia coli SEC086.
T7 construct: SEC086
Briefly: microbe, parasite or virus in culture. Details: species or system Escherichia coli clinical isolates; CLSI broth microdilution MIC on E. coli clinical isolates, A600 read-out, 90% growth inhibition. The following applies: SEC086, read-out: MIC VALUES / Ampicillin. How it is done:
as §1

The test system of a further assay is T8, Escherichia coli SEC046.
T8 construct: SEC046
Briefly: microbe, parasite or virus in culture. Details: species or system Escherichia coli clinical isolates; CLSI broth microdilution MIC on E. coli clinical isolates, A600 read-out, 90% growth inhibition. As to conditions: SEC046, read-out: MIC VALUES / Ampicillin. The method, then:
as §1

For another assay, the system named is T9, Escherichia coli SEC050.
T9 construct: SEC050
Briefly: microbe, parasite or virus in culture. Details: species or system Escherichia coli clinical isolates; CLSI broth microdilution MIC on E. coli clinical isolates, A600 read-out, 90% growth inhibition. As to conditions: SEC050, read-out: MIC VALUES / Ampicillin. The method, then: as §1

Assay [9] deals with T10, Escherichia coli SEC030.
T10 construct: SEC030
Description: microbe, parasite or virus in culture. Further details: species or system Escherichia coli clinical isolates; CLSI broth microdilution MIC on E. coli clinical isolates, A600 read-out, 90% growth inhibition. As to conditions: SEC030, read-out: MIC VALUES / Ampicillin. How it is done:
as §1

Assay [10] deals with T11, Escherichia coli SEC037.
T11 construct: SEC037
Description: microbe, parasite or virus in culture. Further details: species or system Escherichia coli clinical isolates; CLSI broth microdilution MIC on E. coli clinical isolates, A600 read-out, 90% growth inhibition. The following applies: SEC037, read-out: MIC VALUES / Ampicillin. The method, then:
as §1

`CC(=O)NC[C@H]1CN(c2ccc(N3CCOCC3)c(F)c2)C(=O)O1` [Linezolid]: the “Linezolid MIC without PAβN” value in the assay on Escherichia coli SEC086 [1] was 200 µg/mL; in the assay on Escherichia coli SEC037 [2], 200 µg/mL; with Escherichia coli BW25113, 200 µg/mL; with Escherichia coli SEC030 [3] it was 400 µg/mL; in the assay on Escherichia coli SEC045 [4], 200 µg/mL; in the assay on Escherichia coli SEC056, 200 µg/mL. Besides, the “Linezolid MIC without PAβN” value turned out to be 400 µg/mL in the assay on Escherichia coli SEC032 [5], 200 µg/mL in the assay on Escherichia coli SEC052, 400 µg/mL in the assay with Escherichia coli SEC010 and 400 µg/mL in the assay with Escherichia coli SEC063.

In the case of `CC1(C)S[C@@H]2[C@H](NC(=O)[C@H](N)c3ccccc3)C(=O)N2[C@H]1C(=O)O` [ampicillin], the MIC with Escherichia coli SEC045 [6] was found to be 4 µg/mL (≈ 11.4 µM); in the assay with Escherichia coli SEC032 [7], 8 µg/mL (≈ 22.9 µM); with Escherichia coli SEC086 [8] it was 4 µg/mL (≈ 11.4 µM); in the assay on Escherichia coli SEC046, 8 µg/mL (≈ 22.9 µM); in the assay with Escherichia coli SEC050, 8 µg/mL (≈ 22.9 µM); in the assay on Escherichia coli SEC030 [9], 2 µg/mL (≈ 5.72 µM). Besides, the MIC in the assay on Escherichia coli SEC037 [10] worked out at 2 µg/mL (≈ 5.72 µM).
